Results from PMC11003488 (Journal of Enzyme Inhibition and Medicinal Chemistry, 2023).
Read-outs that look alike come from different tables or passages of the source.

Columns and labels:
HL-60(TB) = test: cells; format: cell-based; details: Homo sapiens
HCT-116 = test: NCI-60 SRB growth inhibition, one-dose and five-dose; format: cell-based; details: Homo sapiens
MCF7 = test: as above; format: cell-based; details: Homo sapiens
LOX IMVI = test: as above; format: cell-based; details: Homo sapiens
U251 = test: as above; format: cell-based; details: Homo sapiens
BT-549 = test: as above; format: cell-based; details: Homo sapiens
HOP-92 = test: as above; format: cell-based; details: Homo sapiens
CCRF-CEM = test: as above; format: cell-based; details: Homo sapiens
MDA-MB-435 = test: as above; format: cell-based; details: Homo sapiens
MOLT-4 = test: as above; format: cell-based; details: Homo sapiens
HCC-2998 = test: as above; format: cell-based; details: Homo sapiens
COLO 205 = test: as above; format: cell-based; details: Homo sapiens
DU-145 = test: as above; format: cell-based; details: Homo sapiens
MALME-3M = test: as above; format: cell-based; details: Homo sapiens
KM12 = test: as above; format: cell-based; details: Homo sapiens
SK-MEL-5 = test: as above; format: cell-based; details: Homo sapiens
HOP-62 = test: as above; format: cell-based; details: Homo sapiens
[1] = system: NCI 60-cell line panel (full panel); test: NCI-60 SRB growth inhibition, full panel mean / MG-MID; format: cell-based, human; details: for GI50: Homo sapiens, 60 cell
OVCAR-3 = test: NCI-60 SRB growth inhibition, one-dose and five-dose; format: cell-based; details: Homo sapiens
HCT-15 = test: as above; format: cell-based; details: Homo sapiens
CAKI-1 = test: as above; format: cell-based; details: Homo sapiens
SNB-19 = test: as above; format: cell-based; details: Homo sapiens
HS 578 T = test: as above; format: cell-based; details: Homo sapiens
NCI-H226 = test: as above; format: cell-based; details: Homo sapiens
OVCAR-4 = test: as above; format: cell-based; details: Homo sapiens
NCI-H522 = test: as above; format: cell-based; details: Homo sapiens
K-562 = test: as above; format: cell-based; details: Homo sapiens
SF-268 = test: as above; format: cell-based; details: Homo sapiens
A549/ATCC = test: as above; format: cell-based; details: Homo sapiens
EKVX = test: as above; format: cell-based; details: Homo sapiens
OVCAR-8 = test: as above; format: cell-based; details: Homo sapiens, OVCAR-8, read-out: percent growth inhibition
SR = test: as above; format: cell-based; details: Homo sapiens
T-47D = test: as above; format: cell-based; details: Homo sapiens, T47D
RXF 393 = test: as above; format: cell-based; details: Homo sapiens
IGROV1 = test: as above; format: cell-based; details: Homo sapiens
SF-539 = test: as above; format: cell-based; details: Homo sapiens
SK-MEL-2 = test: as above; format: cell-based; details: Homo sapiens, SK-MEL-2, read-out: percent growth inhibition
MDA-MB-468 = test: as above; format: cell-based; details: Homo sapiens
OVCAR-5 = test: as above; format: cell-based; details: Homo sapiens
A498 = test: as above; format: cell-based; details: Homo sapiens
PC-3 = test: as above; format: cell-based; details: Homo sapiens
SK-MEL-28 = test: as above; format: cell-based; details: Homo sapiens
[2] = read-out: percent growth inhibition

## O=C(/C=C/c1cccnc1)c1cccc(NCc2ccc(CO)cc2)c1 [Compound 5e, (E)-1–(3-((4-(hydroxymethyl)benzyl)amino)phenyl)-3-(pyridin-3-yl)prop-2-en-1-one]
HL-60(TB); HL-60
  GI50: 4.23 µM
HL-60(TB); HL-60, read-out: percent growth inhibition
  inhibition at 10 µM: 118%
HCT-116; HCT-116, HCT-116, five-dose screening
  GI50: 1.88 µM
HCT-116; HCT-116, read-out: percent growth inhibition
  inhibition at 10 µM: 193%
MCF7; MCF7
  GI50: 2.15 µM
MCF7; MCF7, read-out: percent growth inhibition
  inhibition at 10 µM: 163%
LOX IMVI
  GI50: 1.76 µM
LOX IMVI; [2]
  inhibition at 10 µM: 197%
U251; U-251
  GI50: 4.94 µM
U251; U-251, read-out: percent growth inhibition
  inhibition at 10 µM: 146%
BT-549; BT-549
  GI50: 6.12 µM
BT-549; BT-549, read-out: percent growth inhibition
  inhibition at 10 µM: 98.1%
HOP-92; HOP-92
  GI50: 12.5 µM
HOP-92; HOP-92, read-out: percent growth inhibition
  inhibition at 10 µM: 23.3%
CCRF-CEM
  GI50: 5.17 µM
CCRF-CEM; [2]
  inhibition at 10 µM: 131%
MDA-MB-435; MDA-MB-435
  GI50: 5.26 µM
MDA-MB-435; MDA-MB-435, read-out: percent growth inhibition
  inhibition at 10 µM: 58.7%
MOLT-4; MOLT-4
  GI50: 2.69 µM
MOLT-4; MOLT-4, read-out: percent growth inhibition
  inhibition at 10 µM: 120%
HCC-2998; HCC 2998
  GI50: 5.6 µM
HCC-2998; HCC 2998, read-out: percent growth inhibition
  inhibition at 10 µM: 190%
COLO 205; COLO 205
  GI50: 16.3 µM
COLO 205; COLO 205, read-out: percent growth inhibition
  inhibition at 10 µM: 37.3%
DU-145; DU-145
  GI50: 12.8 µM
DU-145; DU-145, read-out: percent growth inhibition
  inhibition at 10 µM: 55%
MALME-3M
  GI50: 13.3 µM
MALME-3M; [2]
  inhibition at 10 µM: 41.4%
KM12; KM12
  GI50: 7.91 µM
KM12; KM12, read-out: percent growth inhibition
  inhibition at 10 µM: 189%
SK-MEL-5; SK-MEL-5
  GI50: 12.5 µM
SK-MEL-5; SK-MEL-5, read-out: percent growth inhibition
  inhibition at 10 µM: 85.7%
HOP-62; HOP-62
  GI50: 15 µM
HOP-62; HOP-62, read-out: percent growth inhibition
  inhibition at 10 µM: 20.7%
[1]; read-out: Full panel GI50 mean
  GI50: 9.96 µM
[1]; read-out: Full panel MG-MID GI50
  GI50: 9.96 µM
[1]; mean over NCI-60 panel, single dose 10 µM
  Full panel Mean GI %: 86.06%
OVCAR-3; OVCAR-3
  GI50: 10.3 µM
OVCAR-3; OVCAR-3, read-out: percent growth inhibition
  inhibition at 10 µM: 131%
HCT-15; HCT-15
  GI50: 3.01 µM
HCT-15; HCT-15, read-out: percent growth inhibition
  inhibition at 10 µM: 132%
CAKI-1; CAKI-1
  GI50: 13.5 µM
CAKI-1; CAKI-1, read-out: percent growth inhibition
  inhibition at 10 µM: 42.3%
SNB-19; SNB-19
  GI50: 12.4 µM
SNB-19; SNB-19, read-out: percent growth inhibition
  inhibition at 10 µM: 74.9%
HS 578 T
  GI50: 18 µM
HS 578 T; [2]
  inhibition at 10 µM: 33.5%
NCI-H226; NCI-H226
  GI50: 11.2 µM
NCI-H226; NCI-H226, read-out: percent growth inhibition
  inhibition at 10 µM: 123%
OVCAR-4; OVCAR-4
  GI50: 11.6 µM
OVCAR-4; OVCAR-4, read-out: percent growth inhibition
  inhibition at 10 µM: 48.8%
NCI-H522; NCI-H522
  GI50: 11.4 µM
NCI-H522; NCI-H522, read-out: percent growth inhibition
  inhibition at 10 µM: 57.6%
K-562; K562
  GI50: 2.75 µM
K-562; K562, read-out: percent growth inhibition
  inhibition at 10 µM: 99.1%
SF-268; SF-268
  GI50: 16.9 µM
SF-268; SF-268, read-out: percent growth inhibition
  inhibition at 10 µM: 64.8%
A549/ATCC; A549
  GI50: 16.9 µM
A549/ATCC; A549, read-out: percent growth inhibition
  inhibition at 10 µM: 16.4%
EKVX
  GI50: 13.7 µM
EKVX; [2]
  inhibition at 10 µM: 56.8%
OVCAR-8
  inhibition at 10 µM: 97.2%
SR
  GI50: 2.62 µM
T-47D
  GI50: 9.17 µM
T-47D; [2]
  inhibition at 10 µM: 59.1%
RXF 393; RXF 393
  GI50: 13.7 µM
RXF 393; RXF 393, read-out: percent growth inhibition
  inhibition at 10 µM: 121%
IGROV1; IGROV-1
  GI50: 3.58 µM
IGROV1; IGROV-1, read-out: percent growth inhibition
  inhibition at 10 µM: 86.3%
SF-539; SF-539
  GI50: 14.5 µM
SF-539; SF-539, read-out: percent growth inhibition
  inhibition at 10 µM: 98.5%
SK-MEL-2
  inhibition at 10 µM: 17.7%
MDA-MB-468; MDA-MB-468
  GI50: 4 µM
MDA-MB-468; MDA-MB-468, read-out: percent growth inhibition
  inhibition at 10 µM: 153%
OVCAR-5; OVCAR-5
  GI50: 14.6 µM
OVCAR-5; OVCAR-5, read-out: percent growth inhibition
  inhibition at 10 µM: 32.6%
A498; A498
  GI50: 14.8 µM
A498; A498, read-out: percent growth inhibition
  inhibition at 10 µM: 15.3%
PC-3; PC-3
  GI50: 11.6 µM
PC-3; PC-3, read-out: percent growth inhibition
  inhibition at 10 µM: 62.6%
SK-MEL-28; SK-MEL-28
  GI50: 13.6 µM
SK-MEL-28; SK-MEL-28, read-out: percent growth inhibition
  inhibition at 10 µM: 121%
